“Also recorded” adds a separate entry of the source. Read-outs that look alike come from different tables or passages of the source.
Experiments:
[1] = test system: mutant (Q111) Htt; experiment: Htt mRNA levels in Q111 striatal cells, qPCR; as to Down-regulating transcription of Mutant Htt (i.e. inhibiting transcription elongation of mutant Htt gene induced by Spt5): key: + represent a statistically significant effect; format: cell-based, mouse; conditions: for effect on mutant (Q111) Htt mRNA expression, in words / Down-regulating transcription of Mutant Htt (i.e. inhibiting transcription elongation of mutant Htt gene induced by Spt5): 48 hours; for Down-regulating transcription of Mutant Htt (i.e. inhibiting transcription elongation of mutant Htt gene induced by Spt5): Q111 striatal cells
Description: (§1) Cell culture—HEK293T, HeLa, MCF7, Jurkat and mouse embryonic fibroblasts (MEFs) cells were grown and maintained in Dulbecco's modified Eagle's medium supplemented with 10% fetal calf serum (Gibco) and 1% penicillin-streptomycin. To avoid NF-κB activity, HeLa cells were kept from reaching confluence and re-plated no more than 10 times following initial thawing. To induce NF-κB activity, cells were treated with […] recombinant human TNF-α (Peprotech) for the indicated times. STHdh Q111 and STHdh Q7 striatal cell lines (Coriell Institute for Medical Research) were grown in Dulbecco's modified Eagle's medium supplemented with 10% fetal calf serum (Gibco), 1% penicillin-streptomycin and 0.4 mg/ml G418 at 33° C. The cells were re-plated no more than 5-6 times, as recommended.
Huntington's disease (HD) is an inherited genetic disorder caused by expansion trinucleotide CAG repeats (36 and higher) encoding glutamine (Q) in the huntingtin (Htt) gene. Expression of the mutant gene in neurons of the striatum and the frontal cortex leads to degeneration of neuronal cells that control body movements, emotions and intellect. […] To examine the potential effect of SPIs in this context, striatal cell lines established from wild type (Q7) or from mutant (Q111) Htt knock-in mice were used. In these cell lines the coding region of the first exon of the mouse Htt gene was replaced with the same region of human wild type (Q7) or mutant (Q111) Htt, as schematically shown in FIG. 6A. The two cell lines were treated for 48 hours with the identified SPIs and following the levels of Htt mRNA were determined.
The compounds were tested as described in Example 4 hereinabove. In brief, Q111 (or Q7, where indicated) expressing Striatal cells were treated with the tested compound at the indicated concentrations for 48 hours. Then, RNA was extracted and levels of Htt mRNA were determined by qRT-PCR and normalized to β-actin. The data was analysed using GraphPad Prism software.

[2] = test system: Spt5 activities; experiment: Combined effects on the various Spt5 activities (summary of Examples 1-4); format: cell-based
[3] = test system: pro-inflammatory genes A20, CCL20, IL6, IL8, CXCL2, JUNB and IEX1; experiment: mRNA levels of pro-inflammatory genes under TNFα-induced conditions, HeLa, RT-qPCR; format: cell-based, human; conditions: for Down-regulating transcription of pro-inflammatory genes under TNFα induced conditions (i.e. inhibiting transcription elongation of pro-inflammatory genes induced by Spt5): HeLa cells, SPI 1 hour then TNFα 1 hour; for effect on TNFα-induced levels of pro-inflammatory genes, in words: HeLa, SPI (50 μM or less) 1 hour then TNFα 1 hour
Description: as §1
(§2) RNA analysis—Total RNA was extracted using Tri-reagent (Bio-Lab Chemicals) and Direct-Zol™ RNA MiniPrep kit (Zymo Research). Following, cDNA was synthesized from […] of total RNA using a High-Capacity cDNA Reverse Transcription Kit (ABI, Thermo Fisher Scientific). cDNA samples were analyzed by quantitative PCR (qPCR) in a ViiA 7 Real-Time PCR System using Fast qPCRBIO SYBR Green Mix (PCR Biosystems).
In the next step, the effect of the identified SPIs on expression of the selected genes following NF-κB activation was analyzed. Specifically, Hela cells were pre-incubated with DMSO or SPI (50 μM or less) for 1 hour followed by treatment with TNFα for an additional 1 hour.

[4] = test system: pro-inflammatory genes A20, CCL20, IL6, IL8, CXCL2, JUNB and IEX1; experiment: mRNA levels of pro-inflammatory genes under basal conditions, HeLa, RT-qPCR; format: cell-based, human; conditions: HeLa cells, 2 hours, 50 μM SPI
Description: as §1, §2
Thus, a subset of Spt5-responsive pro-inflammatory genes from the aforementioned studies and from others (Aida et al., 2006; Fujita et al., 2009), namely A20, CCL20, IL6, IL8, CXCL2, JUNB and IEX1, were selected and the effect of the identified SPIs on their expression under basal conditions and in response to NF-κB activation was tested (FIGS. 2A-C and 3A-C). Specifically, for analyzing expression under basal conditions, Hela cells were treated with vehicle (DMSO) or SPI for 2 hours and following RNA was extracted and analyzed by RT-qPCR.

SMILES | effect on mutant (Q111) Htt mRNA expression, in words [1] | classification by effect on the various Spt5 activities, in words [2] | Down-regulating transcription of pro-inflammatory genes under TNFα induced conditions (i.e. inhibiting transcription elongation of pro-inflammatory genes induced by Spt5) [3] | Up-regulation of pro-inflammatory genes under basal conditions (i.e. inhibiting proximal promoter pausing of pro-inflammatory genes induced by Spt5) [4] | classification by effect on the various Spt5 activities, in words ([2]; listed as SPJ-85) | Down-regulating transcription of Mutant Htt (i.e. inhibiting transcription elongation of mutant Htt gene induced by Spt5) [1] | effective concentration on mutant Htt lower than the concentration needed to inhibit expression of the pro-inflammatory genes [1] | effect on TNFα-induced levels of pro-inflammatory genes, in words [3] | classification by effect on the various Spt5 activities, in words ([2]; listed as SPJ-09)
CCc1ccccc1NS(=O)(=O)c1ccc(-n2ncccc2=O)cc1 [SPI-4516K, N-(2-ethylphenyl)-4-(6-oxopyridazin-1(6H)-yl)benzenesulfonamide] | efficacy in selectively inhibiting transcription of Htt gene | – | – | – | – | – | – | – | –
N#CC(C#N)=CC=C(Sc1ncc(C(F)(F)F)cc1Cl)c1ccc(Cl)cc1 [SPI-16] | did not affect mutant Htt expression | affected the basal and the TNFα-induced pro-inflammatory gene transcription | +++ (+++ represent >80% inhibition) | ++ (++ >3) | – | – | – | – | –
COc1ccc(C2=NCC(CSc3nc4cc(Cl)ccc4o3)S2)cc1 (centres unmarked) [SPI-0324] | efficacy in selectively inhibiting transcription of Htt gene | – | – | – | – | – | – | – | –
CN(C)c1ccc(C2NCC(CSc3nc4ccccc4s3)O2)cc1 (centres unmarked) [SPI-85] | diminished mutant Htt expression | little or no effect on basal and induced pro-inflammatory gene expression | – | – | a single activity as SPI inhibitors towards inhibiting transcription of Htt gene | + | – | – | –
CCc1ccccc1NS(=O)(=O)c1ccc(-n2ncc(Cl)c(Cl)c2=O)cc1 [SPI-31] | efficacy in selectively inhibiting transcription of Htt gene | inhibited mainly the positive activity of Spt5 with little or no effect on proximal promoter pausing; also recorded: a single activity as SPI inhibitors towards inhibiting transcription of Htt gene | +++ (+++ represent >80% inhibition) | – | – | + | about 15 fold | – | –
Nc1ccc2ncnc(NCCc3ccc(Oc4ccccc4)cc3)c2c1 [SPI-74] | – | affect all the tested Spt5 activities | ++ (++ >65%) | + (+ >1.6) | – | + | – | affected mainly the genes that were strongly induced by the TNFα treatment | –
CCN(CC)CCOc1ccc(C(=C(Cl)c2ccccc2)c2ccccc2)cc1 [SPI-42] | did not affect mutant Htt expression | affected the basal and the TNFα-induced pro-inflammatory gene transcription | ++ (++ >65%) | + (+ >1.6) | – | – | – | affected mainly the genes that were strongly induced by the TNFα treatment | –
O=C1C(=Cc2cccc(O)c2)CSCC1=Cc1cccc(O)c1 [SPI-157] | did not affect mutant Htt expression | affected the basal and the TNFα-induced pro-inflammatory gene transcription | +++ (+++ represent >80% inhibition) | ++ (++ >3) | – | – | – | – | –
O=C(O)c1ccc(C=C2CSc3c(F)cccc3C2=O)cc1 [SPI-46] | did not affect mutant Htt expression | affected the basal and the TNFα-induced pro-inflammatory gene transcription | +++ (+++ represent >80% inhibition) | + (+ >1.6) | – | – | – | – | –
CN(Cc1cnn(Cc2ccccc2)c1)c1ccc2nnc(-c3ccccc3)n2n1 [SPI-17] | did not affect mutant Htt expression | affected the basal and the TNFα-induced pro-inflammatory gene transcription | +++ (+++ represent >80% inhibition) | +++ (+++ represent effect >10) | – | – | – | – | –
OCc1ccc(-c2ccc(-c3ccc(CO)s3)o2)s1 [SPI-48] | – | a single activity as SPI inhibitors towards inhibiting transcription of Htt gene | – | – | – | + | – | – | –
OCc1ccc(-c2ccc(-c3cccs3)s2)s1 [SPI-8108] | efficacy in selectively inhibiting transcription of Htt gene | – | – | – | – | – | – | – | –
O=c1oc2cc(O)ccc2s1 [SPI-09] | diminished mutant Htt expression | little or no effect on basal and induced pro-inflammatory gene expression | – | – | – | + | – | – | a single activity as SPI inhibitors towards inhibiting transcription of Htt gene
Cn1cc(-c2ccncc2)c(-c2ccc(OCc3ccc4ccccc4n3)cc2)n1 [SPI-95] | did not affect mutant Htt expression | affected the basal and the TNFα-induced pro-inflammatory gene transcription | ++ (++ >65%) | + (+ >1.6) | – | – | – | affected mainly the genes that were strongly induced by the TNFα treatment | –
CSc1ccccc1NS(=O)(=O)c1ccc(-n2ncc(Cl)c(Cl)c2=O)cc1 [SPI-1477] | efficacy in selectively inhibiting transcription of Htt gene | – | – | – | – | – | – | – | –
O=C(O)c1ccc(C=C2CSc3ccc(F)cc3C2=O)cc1 [SPI-68] | – | – | ++ (++ >65%) | + (+ >1.6) | – | + | – | affected mainly the genes that were strongly induced by the TNFα treatment | –
Cc1ccnc(SC=CC(=O)c2ccccc2)n1 [SPI-57] | did not affect mutant Htt expression | affected the basal and the TNFα-induced pro-inflammatory gene transcription | +++ (+++ represent >80% inhibition) | + (+ >1.6) | – | – | – | – | –
O=C(/C=C/c1ccc(O)cc1)CC(=O)/C=C/c1ccc(O)cc1 [SPI-29] | – | affect all the tested Spt5 activities | +++ (+++ represent >80% inhibition) | ++ (++ >3) | – | + | – | – | –
